Source: US5387602A, “1.5-diphenyl-3-(N-hydroxycarbamoyloxyalkyl)pyrazoles” (Ortho Pharmaceutical Corporation, priority 1993, dated 1995)

Experiments:
[1] = biological target: T1, Sheep Seminal Vesicle Cyclooxygenase (Ovis aries, UniProt P05979); experiment: Procedure I: sheep seminal vesicle (SSV) cyclooxygenase inhibition; format: biochemical
T1 construct: purchased Biomol (Plymouth Meeting, Pa.); host or cells: sheep seminal vesicle
T1 sequence (P05979 25-600): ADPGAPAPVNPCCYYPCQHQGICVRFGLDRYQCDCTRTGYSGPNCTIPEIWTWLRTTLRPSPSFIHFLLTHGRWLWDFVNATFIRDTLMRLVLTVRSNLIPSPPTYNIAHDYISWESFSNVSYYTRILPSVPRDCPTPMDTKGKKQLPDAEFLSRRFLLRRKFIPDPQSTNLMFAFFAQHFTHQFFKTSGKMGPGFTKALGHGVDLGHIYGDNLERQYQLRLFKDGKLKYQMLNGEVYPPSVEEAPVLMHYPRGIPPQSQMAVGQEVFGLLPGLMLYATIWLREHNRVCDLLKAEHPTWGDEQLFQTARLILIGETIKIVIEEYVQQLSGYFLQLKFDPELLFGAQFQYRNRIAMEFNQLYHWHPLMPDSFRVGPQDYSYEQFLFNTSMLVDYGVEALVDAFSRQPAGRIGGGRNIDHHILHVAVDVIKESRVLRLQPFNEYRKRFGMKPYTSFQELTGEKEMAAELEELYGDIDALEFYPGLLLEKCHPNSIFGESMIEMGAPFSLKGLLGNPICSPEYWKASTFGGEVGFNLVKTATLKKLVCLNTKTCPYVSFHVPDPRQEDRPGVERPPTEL
Description: Sheep Seminal Vesicle Cyclooxygenase Sheep seminal vesicle (SSV) cyclooxygenase (95% pure, prostaglandin endoperoxide synthase, EC 1.14.99.1 specific activity 24 units/mg protein) obtained as a lyophilized powder from Biomol (Plymouth Meeting, Pa.) was reconstituted at a concentration of 59 mg/mL in Hanks' Balanced Salt Solution (HBSS). The enzyme was divided into 200 μL aliquots, snap frozen with liquid N2, and stored at -70° C. until immediately prior to use. Measurements of CO activity were carried out in polypropylene tubes containing 495 μL of HBSS to which was added 5 μL Of inhibitor or dimethylsulfoxide (DMSO; vehicle control) and 6 μL of SSV CO solution. The tubes were mixed on a vortex shaker, preincubated for 5 min at 37° C. prior to the initiation of the reaction. The reaction was started by the addition of [^14 C]-arachidonic acid (1-^14 C-AA, Amersham, Arlington Heights, Ill.) in 10 μL of methanol. Tubes were again vortexed and incubated in a water bath for 20 minutes after which the tubes were removed and the reaction stopped by acidification with the addition of 1 mL 2M formic acid. Lipophilic products were extracted with 3 mL chloroform and concentrated to dryness under N2. Each pellet was reconstituted with 40 μL of chloroform and spotted on a Whatman Silicon thin-layer chromatography plate and developed in a chromatography tank containing A-9 solvent (11:5:2:1 V:V:V:V, ethyl acetate:trimethyl-pentane:acetic acid:double distilled-H2 O). Radioactive cyclooxygenase products (prostaglandin D2, prostaglandin E2, etc.) were measured using a Bioscan System 200 Imaging Scanner. Inhibition of enzyme activity was calculated by comparing the areas under the curve produced in the presence or absence of test compound. In the following tables, the superscripts indicate the number of experiments and, unless otherwise stated, the dose at which % inhibition is reported is 3 MPK.

[2] = biological target: T2, 5-LO in intact RBL-1 cells (Rattus norvegicus, UniProt P12527); experiment: Procedure III: inhibition of 5-LO in intact RBL-1 cells; format: cell-based
T2 construct: 5-LO and CO in intact RBL-1 cells; endogenous in cells; host or cells: RBL-1 (rat basophilic leukemia cells), intact
T2 sequence (P12527 1-673): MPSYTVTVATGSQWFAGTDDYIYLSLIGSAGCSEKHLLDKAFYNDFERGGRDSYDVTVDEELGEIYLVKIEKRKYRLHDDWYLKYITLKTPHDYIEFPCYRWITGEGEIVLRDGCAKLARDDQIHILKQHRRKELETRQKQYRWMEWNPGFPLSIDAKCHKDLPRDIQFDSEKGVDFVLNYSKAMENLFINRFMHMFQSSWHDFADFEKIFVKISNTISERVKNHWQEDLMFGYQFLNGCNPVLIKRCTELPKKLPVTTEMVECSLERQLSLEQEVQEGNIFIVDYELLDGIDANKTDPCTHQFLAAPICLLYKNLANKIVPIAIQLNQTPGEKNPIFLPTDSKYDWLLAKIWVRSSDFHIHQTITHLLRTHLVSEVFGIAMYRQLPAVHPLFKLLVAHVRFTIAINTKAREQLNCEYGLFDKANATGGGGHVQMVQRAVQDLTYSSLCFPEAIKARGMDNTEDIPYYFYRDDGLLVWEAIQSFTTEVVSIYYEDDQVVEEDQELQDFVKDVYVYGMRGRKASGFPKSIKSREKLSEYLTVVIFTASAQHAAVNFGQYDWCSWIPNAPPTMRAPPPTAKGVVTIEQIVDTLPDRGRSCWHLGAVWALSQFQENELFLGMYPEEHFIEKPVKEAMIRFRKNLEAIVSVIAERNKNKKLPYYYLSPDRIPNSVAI
Description: The ability to inhibit 5-LO and CO in intact RBL-1 cells was also evaluated. RBL-1 cells were maintained in culture in minimal essential medium (Bio*Whittaker, Walkersville, Md.), containing 12.5% fetal calf serum, 10 mg/mL streptomycin, 10 I.U./mL penicillin G, […] gentamycin and 2 mM L-glutamine (Bio*Whittaker, Walkersville, Md.). Cells were collected by centrifugation, washed once in HBSS, and resuspended at a concentration of 1×10^5 cells/mL. Cells were incubated in the presence of vehicle or drug then centrifuged at 800×g for 10 minutes at 4° C. The supernatant was removed by aspiration and the cells were resuspended in 0.5 mL of HBSS. The reaction was started by the addition of 20 μg/mL of calcium ionophore A-23187 (mixed calcium and magnesium salts, Calbiochem, La Jolla, Calif.) and allowed to proceed for 15 minutes, then stopped by plunging the tubes into a slush ice bath. The conversion of AA to 5-LO products was initiated by the addition of 10 μL (50 uCi) of 1-^14 C-AA. Products were isolated by acidification and extraction, followed by thin layer chromatography analysis as described above. Radioactive areas corresponding to authentic 5-LO and CO products were quantitated by the Bioscan 2000 Imaging System.
In the following tables, the superscripts indicate the number of experiments and, unless otherwise stated, the dose at which % inhibition is reported is 3 MPK.

COc1ccc(-n2nc(CCCOC(=O)N(O)C(C)C)c(Br)c2-c2ccc(Cl)cc2)cc1 [3-G]
IC50 ([1]; SSV CO): 14.1 µM | % INHIB. CO (Procedure I) ([1]; dose 3 MPK unless otherwise stated (so in the source)): 0% | IC50 [2]: 1.5 µM
